Measured values from patent US20050124562A1, “Bis-quinazoline compounds for the treatment of bacterial infections” (priority 2003, published 2005).
Converted amounts (≈) assume the structure as drawn. Where a name gives a salt, the structure may show the parent alone. Read-outs that look alike come from different tables or passages of the source.

Columns and labels:
Assay type in all cases: cell-based
[1] = tested on: efflux mutants of P. aeruginosa; experiment: Broth microdilution MIC (NCCLS), P. aeruginosa efflux mutants; settings: for MICs: efflux mutants of P. aeruginosa; for MIC: Pseudomonas aeruginosa, read-out: MICs
Protocol: (§1) Representative bis-quinazolines were tested for antibacterial activity using the […] microdilution method to determine their minimum inhibitory concentrations (MICs). All compounds were tested using standard methods in accordance with NCCLS guidelines (National Committee for Clinical Laboratory Standards. 2003. Methods for dilution antimicrobial susceptibility testing for bacteria that grow aerobically. Approved Standard M-7 A-6, NCCLS, Wayne, Pa.). The bacterial strains used in the susceptibility tests were obtained from the American Type Culture Collection (ATCC) and included resistant phenotypes such as oxacillin-resistant S. aureus (ORSA) and vancomycin-resistant enterococci (VRE). The minimum bactericidal concentrations (MBCs) were determined for selected organisms. The effect of protein binding on the antibacterial activity of representative bis-quinazolines were determined by conducting MIC tests in the presence of human serum.

M. catarrhalis = experiment: Broth microdilution MIC (NCCLS), M. catarrhalis; settings: Moraxella catarrhalis, read-out: MIC range
Protocol: as §1

[2] = tested on: efflux mutants of E. coli; experiment: Broth microdilution MIC (NCCLS), E. coli efflux mutants; settings: Escherichia coli, read-out: MICs
Protocol: as §1

H. influenzae = experiment: Broth microdilution MIC (NCCLS), H. influenzae; settings: Haemophilus influenzae; some strains of H. influenzae
Protocol: as §1

[3] = tested on: S. aureus, E. faecalis, S. pyogenes and S. pneumoniae; experiment: Broth microdilution MIC (NCCLS), gram-positive strains
Protocol: as §1

[4] = range against some strains of S. aureus, E. faecalis, S. pyogenes and S. pneumoniae, read-out: MIC

Compound	MIC [1] [µg/mL]	MIC [2] [µg/mL]	MIC (H. influenzae) [µg/mL]	MIC [3, 4] [µg/mL]	other results
2-[4-Hydroxy-6-(2-morpholin-4-yl-ethoxy)-quinazolin-2-ylamino]-6,7-dimethoxy-quinazolin-4-ol trifluoroacetate salt [Example 150]	–	–	–	–	MICs [1]: 64 µg/mL
Cc1nc(Nc2nc(C)c3ccc4c(c3n2)OCCO4)nc2ccc(OCCN3CCC(O)C3)cc12 (centres unmarked) [Example 12, 1-{2-[4-Methyl-2-(8-methyl-2,3-dihydro-1,4-dioxa-5,7-diaza-phenanthren-6-ylamino)-quinazolin-6-yloxy]-ethyl}-pyrrolidin-3-ol]	64 (≈ 131 µM)	16 to 64 (≈ 32.8 to 131 µM)	16 to 32 (≈ 32.8 to 65.5 µM)	–	MIC (M. catarrhalis): 2 to 64 µg/mL (≈ 4.09 to 131 µM); MIC [3]: 0.06 to 16 µg/mL (≈ 0.123 to 32.8 µM)
COc1ccc2nc(Nc3nc(O)c4cc(OC)c(OC)c(OC)c4n3)nc(C)c2c1.O=C(O)C(F)(F)F [Example 18, 6,7,8-Trimethoxy-2-(6-methoxy-4-methyl-quinazolin-2-ylamino)-quinazolin-4-ol trifluoroacetate salt]	64	16 to 64	16 to 32	0.06 to 16	MIC (M. catarrhalis; some strains of M. catarrhalis): 2 to 64 µg/mL
COc1ccc2nc(Nc3nc(O)c4cc(C)cc(C)c4n3)nc(C)c2c1 [Example 19, 2-(6-Methoxy-4-methyl-quinazolin-2-ylamino)-6,8-dimethyl-quinazolin-4-ol]	64 (≈ 177 µM)	16 to 64 (≈ 44.3 to 177 µM)	16 to 32 (≈ 44.3 to 88.5 µM)	–	MIC (M. catarrhalis): 2 to 64 µg/mL (≈ 5.53 to 177 µM); MIC [3]: 0.06 to 16 µg/mL (≈ 0.166 to 44.3 µM)
COc1ccc2nc(Nc3nc(O)c4cc(C)cc(Br)c4n3)nc(C)c2c1 [Example 39, 8-Bromo-2-(6-methoxy-4-methyl-quinazolin-2-ylamino)-6-methyl-quinazolin-4-ol trifluoroacetate salt]	64	16 to 64	16 to 32	–	MIC (M. catarrhalis): 2 to 64 µg/mL; MIC [3]: 0.06 to 16 µg/mL
COc1cc2nc(Nc3nc(O)c4cc([N+](=O)[O-])cc(C)c4n3)nc(C)c2cc1OC.O=C(O)C(F)(F)F [Example 66]	–	–	–	–	MICs [1]: 64 µg/mL
COc1cc2c(C)nc(Nc3nc(O)c4cccc(OC)c4n3)nc2cc1[N+](=O)[O-].O=C(O)C(F)(F)F [Example 77, 2-(6-methoxy-7-nitro-4-methyl-quinazolin-2-ylamino)-8-methoxy-quinazolin-4-ol trifluoroacetate salt]	64	16 to 64	16 to 32	0.06 to 16	MIC (M. catarrhalis; some strains of M. catarrhalis): 2 to 64 µg/mL
COc1cc2nc(Nc3nc(O)c4c(OC)cccc4n3)nc(C)c2cc1OC.O=C(O)C(F)(F)F [Example 84, 2-(6,7-Dimethoxy-4-methyl-quinazolin-2-ylamino)-5-methoxy-quinazolin-4-ol trifluoroacetate salt]	64	16 to 64	16 to 32	0.06 to 16	MIC (M. catarrhalis; some strains of M. catarrhalis): 2 to 64 µg/mL
COc1cc(OC)c2nc(Nc3nc(O)c4c(OC)cccc4n3)nc(C)c2c1.O=C(O)C(F)(F)F [Example 85, 2-(6,8-Dimethoxy-4-methyl-quinazolin-2-ylamino)-5-methoxy-quinazolin-4-ol trifluoroacetate salt]	64	16 to 64	16 to 32	0.06 to 16	MIC (M. catarrhalis; some strains of M. catarrhalis): 2 to 64 µg/mL
COc1cc2c(C)nc(Nc3nc(O)c4cccc(OC)c4n3)nc2cc1F.O=C(O)C(F)(F)F [Example 86, 2-(7-Fluoro-6-methoxy-4-methyl-quinazolin-2-ylamino)-8-methoxy-quinazolin-4-ol trifluoroacetate salt]	64	16 to 64	16 to 32	0.06 to 16	MIC (M. catarrhalis; some strains of M. catarrhalis): 2 to 64 µg/mL
COc1cc2nc(Nc3nc(O)c4cccc(OC)c4n3)nc(CF)c2cc1OC.O=C(O)C(F)(F)F [Example 87, 2-(4-Fluoromethyl-6,7-dimethoxy-quinazolin-2-ylamino)-8-methoxy-quinazolin-4-ol trifluoroacetate salt]	64	16 to 64	16 to 32	0.06 to 16	MIC (M. catarrhalis; some strains of M. catarrhalis): 2 to 64 µg/mL
COc1cc2nc(Nc3nc(O)c4cc(OCCN5CCC(O)C5)ccc4n3)nc(C)c2cc1OC.O=C(O)C(F)(F)F (centres unmarked) [Example 155, 2-(6,7-Dimethoxy-4-methyl-quinazolin-2-ylamino)-6-[2-(3-hydroxy-pyrrolidin-1-yl)-ethoxy]-quinazolin-4-ol trifluoroacetate salt]	–	–	–	–	MICs [1]: 64 µg/mL
COc1cc2nc(Nc3nc(O)c4cc(OCCN5CCC(O)C5)ccc4n3)nc(C)c2cc1OC.O=C(O)C(F)(F)F (centres unmarked) [Example 156, 2-(6,7-Dimethoxy-4-methyl-quinazolin-2-ylamino)-6-[2-(3-hydroxy-pyrrolidin-1-yl)-ethoxy]-quinazolin-4-ol trifluoroacetate salt]	–	–	–	–	MICs [1]: 64 µg/mL
COc1cc2nc(Nc3nc(O)c4cc(OCCNC(CO)CC(C)C)ccc4n3)nc(C)c2cc1OC (centres unmarked) [Example 162, 2-(6,7-Dimethoxy-4-methyl-quinazolin-2-ylamino)-6-{2-[(1-hydroxymethyl-3-methylbutyl)-amino]-ethoxy}-quinazolin-4-olTrifluoroacetate salt]	–	–	–	–	MICs [1]: 64 µg/mL
COc1cc(OC)c2nc(Nc3nc(O)c4cc(OCCN5CCCC5CO)ccc4n3)nc(C)c2c1.O=C(O)C(F)(F)F (centres unmarked) [Example 168, 2-(6,8-Dimethoxy-4-methyl-quinazolin-2-ylamino)-6-[2-(2-hydroxymethyl-pyrrolidin-1-yl)-ethoxy]-quinazolin-4-ol trifluoroacetate salt]	–	–	–	0.06 to 16	–
COc1cc2nc(Nc3nc(O)c4cc(OCCN5CCCCC5CO)ccc4n3)nc(C)c2cc1OC.O=C(O)C(F)(F)F (centres unmarked) [Example 173, 2-(6,7-Dimethoxy-4-methyl-quinazolin-2-ylamino)-6-[2-(2-hydroxymethyl-piperidin-1-yl)-ethoxy]-quinazolin-4-ol trifluoroacetate salt]	–	–	–	0.06 to 16	–
COc1cc2nc(Nc3nc(O)c4cc(OCCn5cnnc5)ccc4n3)nc(C)c2cc1OC.O=C(O)C(F)(F)F [Example 174, 2-(6,7-Dimethoxy-4-methyl-quinazolin-2-ylamino)-6-(2-[1,2,4]triazol-4-yl-ethoxy)-quinazolin-4-ol trifluoroacetate salt]	–	–	–	0.06 to 16	–
COc1cc2nc(Nc3nc(O)c4cc(OCCN5CCN(CCO)CC5)ccc4n3)nc(C)c2cc1OC.O=C(O)C(F)(F)F [Example 175, 2-(6,7-Dimethoxy-4-methyl-quinazolin-2-ylamino)-6-{2-[4-(2-hydroxy-ethyl)-piperazin-1-yl]-ethoxy}-quinazolin-4-ol trifluoroacetate salt]	–	–	–	0.06 to 16	–
COc1cc2nc(Nc3nc(O)c4cc(OCCNNCCO)ccc4n3)nc(C)c2cc1OC.O=C(O)C(F)(F)F [Example 176, 2-(6,7-Dimethoxy-4-methyl-quinazolin-2-ylamino)-6-{2-[N′-(2-hydroxy-ethyl)-hydrazino]-ethoxy}-quinazolin-4-ol trifluoroacetate salt]	–	–	–	0.06 to 16	–
COc1cc2nc(Nc3nc(O)c4cc(OCCN5CC(C)OC(C)C5)ccc4n3)nc(C)c2cc1OC.O=C(O)C(F)(F)F (centres unmarked) [Example 177, 2-(6,7-Dimethoxy-4-methyl-quinazolin-2-ylamino)-6-[2-(2,6-dimethyl-morpholin-4-yl)-ethoxy]-quinazolin-4-ol trifluoroacetate salt]	–	–	–	0.06 to 16	–
COc1cc2nc(Nc3nc(O)c4cc(OCCNCCOCCO)ccc4n3)nc(C)c2cc1OC.O=C(O)C(F)(F)F [Example 179, 2-(6,7-Dimethoxy-4-methyl-quinazolin-2-ylamino)-6-{2-[2-(2-hydroxy-ethoxy)-ethylamino]-ethoxy}-quinazolin-4-ol trifluoroacetate salt]	–	–	–	0.06 to 16	–
COc1cc2nc(Nc3nc(O)c4cc(OCCN5CCCC5CN5CCCC5)ccc4n3)nc(C)c2cc1OC.O=C(O)C(F)(F)F (centres unmarked) [Example 180, 2-(6,7-Dimethoxy-4-methyl-quinazolin-2-ylamino)-6-[2-(2-pyrrolidin-1-ylmethyl-pyrrolidin-1-yl)-ethoxy]-quinazolin-4-ol trifluoroacetate salt]	–	–	–	0.06 to 16	–
COc1cc2nc(Nc3nc(O)c4cc(OCCNC5CCCCC5O)ccc4n3)nc(C)c2cc1OC.O=C(O)C(F)(F)F (centres unmarked) [Example 181, 2-(6,7-Dimethoxy-4-methyl-quinazolin-2-ylamino)-6-[2-(2-hydroxy-cyclohexylamino)-ethoxy]-quinazolin-4-ol trifluoroacetate salt]	–	–	–	0.06 to 16	–
COc1cc2nc(Nc3nc(O)c4cc(OCCN(C)Cc5cccnc5)ccc4n3)nc(C)c2cc1OC.O=C(O)C(F)(F)F [Example 182, 2-(6,7-Dimethoxy-4-methyl-quinazolin-2-ylamino)-6-[2-(methyl-pyridin-3-ylmethyl-amino)-ethoxy]-quinazolin-4-ol trifluoroacetate salt]	–	–	–	0.06 to 16	–
COc1cc2nc(Nc3nc(O)c4cc(OCCNCCc5ccncc5)ccc4n3)nc(C)c2cc1OC.O=C(O)C(F)(F)F [Example 183, 2-(6,7-Dimethoxy-4-methyl-quinazolin-2-ylamino)-6-[2-(2-pyridin-4-yl-ethylamino)-ethoxy]-quinazolin-4-ol TFA salt]	–	–	–	0.06 to 16	–
COc1cc2nc(Nc3nc(O)c4cc(OCCN(C)Cc5ccncc5)ccc4n3)nc(C)c2cc1OC.O=C(O)C(F)(F)F [Example 184, 2-(6,7-Dimethoxy-4-methyl-quinazolin-2-ylamino)-6-[2-(methyl-pyridin-4-ylmethyl-amino)-ethoxy]-quinazolin-4-ol TFA salt]	–	–	–	0.06 to 16	–
